# Test results taken from patent US20240336559A1, “ANTI-FUNGALS COMPOUNDS TARGETING THE SYNTHESIS OF FUNGAL SPHINGOLIPIDS” (The Research Foundation for the State University of New York, priority 2021, published 2024).
# Where two headings read alike, the source gives them in different places.
# Experiments:
# [1] = test system: synthesis of sphingolipid GlcCer in C. neoformans; settings: in words, 'It was known'; cited from earlier work
# C. neoformans = test: Antifungal activity assay (MIC80), C. neoformans; format: cell-based; settings: Cryptococcus neoformans
# Protocol: (§1) MICs were determined following the methods of the Clinical and Laboratory Standards Institutes (CLSI) with modifications. Yeast nitrogen base (YNB) medium without amino acid (pH 7.0, 2% glucose) buffered with (4-(2-hydroxyethyl)-1-piperazineethanesulfonic acid) (HEPES) was used for MIC studies in C. neoformans. YNB medium without ammonium sulfate, without amino acid and 1% asparagine (pH 7.0, 2% glucose) was used for MIC studies in Candida strains. RPMI medium (pH 7.0, 2% glucose) was used for MIC studies in A. fumigatus. […] The compounds were serially diluted from 32 to 0.03 μg/mL, in a 96-well plate. The inoculum was prepared as described in the CLSI protocol M27A3 guidelines. The plates were incubated at 37° C. with 5% CO2 for 24 to 72 h and the optical density was measure at 450 nm. The MICs were determined as the lowest concentration of the compound that inhibited 80% of growth compared to the control.
# MICs was determined following the methods of the Clinical and Laboratory Standards Institutes (CLSI) with modifications. Yeast Nitrogen Base (YNB) medium (pH 7.0, 0.2% glucose) buffered with HEPES was used for MIC studies. […] The compound was serially diluted from 16 to 0.03 μg/ml, in a 96-well plate. The inoculum was prepared as described in the CLSI protocol M27A3 guidelines. The plates were incubated at 37° C. with 5% CO2 for 24 to 72 h and the optical density was measure at 450 nm. The MICs was determined as the lowest concentration of the compound that inhibited 80% of growth compared to the control.
# A. fumigatus = test: Antifungal activity assay (MIC80), A. fumigatus; format: cell-based; settings: Aspergillus fumigatus; lowest concentration inhibiting 80% of growth; RPMI pH 7.0, 37° C., 5% CO2, 24 to 72 h
# Protocol: as §1
# C. albicans = test: Antifungal activity assay (MIC80), C. albicans; format: cell-based; settings: Candida albicans; lowest concentration inhibiting 80% of growth; YNB pH 7.0, 37° C., 5% CO2, 24 to 72 h
# Protocol: as §1
# [2] = test system: C. neoformans, C. albicans, A. fumigatus; test: Broad spectrum in vitro antifungal activity; format: cell-based; settings: in words
# Protocol: as §1
# [3] = lowest concentration inhibiting 80% of growth, YNB pH 7.0 HEPES, 37° C., 5% CO2, 24 to 72 h, read-out: MIC80 C. neoformans
SMILES,MIC80 (C. neoformans; [3]) [µg/mL],MIC80 (A. fumigatus) [µg/mL],MIC80 (C. albicans) [µg/mL],melting point [°C],also measured
Cc1ccccc1C(=O)N/N=C/c1ccc(O)c(Br)c1 [BHBM],–,–,–,–,antifungal activities by inhibiting the synthesis of sphingolipid GlcCer [1]: potent antifungal activities
"C#Cc1ccc(O)c(/C=N/NC(=O)c2ccc(Br)cc2Br)c1 [SB-AF-08-23, 2,4-Dibromo-N′-(5-ethynyl-2-hydroxybenzylidene)benzohydrazide]",0.03,2,≤ 0.01,–,–
"C#Cc1ccc(/C=N/NC(=O)c2ccc(Br)cc2Br)c(O)c1 [SB-AF-08-27, 2,4-Dibromo-N′-(4-ethynyl-2-hydroxybenzylidene)benzohydrazide]",0.03,0.5,0.12,–,in vitro broad-spectrum antifungal activity [2]: excellent in vitro broad-spectrum activity
"C#Cc1cccc(O)c1/C=N/NC(=O)c1ccc(Br)cc1Br [SB-AF-08-29, 2,4-Dibromo-N′-(2-ethynyl-6-hydroxybenzylidene)benzohydrazide]",0.031,> 32,0.5,–,–
"C#Cc1ccc(O)c(/C=N/NC(=O)c2ccc(Br)cc2)c1 [SB-AF-10-23, 4-Bromo-N′-(5-ethynyl-2-hydroxybenzylidene) benzohydrazide]",0.007,2,0.06,–,–
"C#Cc1ccc(/C=N/NC(=O)c2ccc(Br)cc2)c(O)c1 [SB-AF-10-27, 4-Bromo-N′-(4-ethynyl-2-hydroxybenzylidene)benzohydrazide]",0.03,> 16,4,–,–
"C#Cc1cccc(/C=N/NC(=O)c2ccc(Br)cc2)c1O [SB-AF-10-28, 4-Bromo-N′-(3-ethynyl-2-hydroxybenzylidene)benzohydrazide]",0.007,4,2,–,–
"C#Cc1cccc(O)c1/C=N/NC(=O)c1ccc(Br)cc1 [SB-AF-10-29, 4-Bromo-N-(2-ethynyl-6-hydroxybenzylidene)benzohydrazide]",–,> 32,8,–,"MIC80 (C. neoformans; pH 7, read-out: MIC80 C. neoformans): 0.125 µg/mL"
"C#Cc1ccc(O)c(/C=N/NC(=O)c2cc(Br)cc(Br)c2O)c1 [SB-AF-12-23, 2-Hydroxy-3,5-dibromo-N-(5-ethynyl-2-hydroxybenzylidene)benzohydrazide]",0.03,4,0.12,–,–
"C#Cc1ccc(/C=N/NC(=O)c2cc(Br)cc(Br)c2O)c(O)c1 [SB-AF-12-27, 3,5-Dibromo-N′-(4-ethynyl-2-hydroxybenzylidene)-2-hydroxybenzohydrazide]",0.03,> 16,2,–,–
"C#Cc1ccc(O)c(/C=N/NC(=O)c2ccc(Br)c(Br)c2)c1 [SB-AF-13-23, 3,4-Dibromo-N′-(5-ethynyl-2-hydroxybenzylidene)benzohydrazide]",0.06,2,0.5,–,–
"C#Cc1ccc(/C=N/NC(=O)c2ccc(Br)c(Br)c2)c(O)c1 [SB-AF-13-27, 3,4-Dibromo-N′-(4-ethynyl-2-hydroxybenzylidene)benzohydrazide]",0.007,> 16,8,–,–
"C#Cc1cccc(/C=N/NC(=O)c2ccc(Br)c(Br)c2)c1O [SB-AF-13-28, 3,4-Dibromo-N′-(3-ethynyl-2-hydroxybenzylidene)benzohydrazide]",0.015,1,4,–,–
"C#Cc1cccc(O)c1/C=N/NC(=O)c1ccc(Br)c(Br)c1 [SB-AF-13-29, 3,4-Dibromo-N′-(2-ethynyl-6-hydroxybenzylidene)benzohydrazide]",0.06,8,16,–,–
"C#Cc1ccc(O)c(/C=N/NC(=O)c2ccc(OC(F)(F)F)cc2F)c1 [SB-AF-25-23, 2-Fluoro-4-(trifluoromethoxy)-N-(5-ethynyl-2-hydroxybenzylidene)benzohydrazide]",4,–,–,–,–

# The next lines start with results.
MIC80 (C. neoformans; [3]) [µg/mL],MIC80 (A. fumigatus) [µg/mL],MIC80 (C. albicans) [µg/mL],melting point [°C],SMILES,also measured
0.007,> 16,16,–,"C#Cc1ccc(C(=O)N/N=C/c2ccc(C#C)cc2O)cc1 [SB-AF-36-27, 4-Ethynyl-N′-(4-ethynyl-2-hydroxybenzylidene)benzohydrazide]",–
–,–,–,198 to 199,"COCc1ccc(C(=O)N/N=C/c2ccc(Br)cc2O)cc1 [SB-AF-39-13, 4-Methoxymethyl-N′-(4-bromo-2-hydroxybenzylidene)benzohydrazide]",–
–,–,–,188 to 189,"COCc1ccc(C(=O)N/N=C/c2cc(Br)ccc2O)cc1 [SB-AF-39-15, 4-Methoxymethyl-N′-(5-bromo-2-hydroxybenzylidene)benzohydrazide]",–
–,–,–,187 to 188,"COCc1ccc(C(=O)N/N=C/c2cccc(Br)c2O)cc1 [SB-AF-39-22, 4-Methoxymethyl-N′-(3-bromo-2-hydroxybenzylidene)benzohydrazide]",–
0.25,–,–,–,"C#Cc1ccc(O)c(/C=N/NC(=O)c2ccc(COC)cc2)c1 [SB-AF-39-23, 4-Methoxymethyl-N′-(5-ethynyl-2-hydroxybenzylidene)benzohydrazide]",–
–,–,–,205 to 207,"CCOCc1ccc(C(=O)N/N=C/c2cc(Br)cc(Br)c2O)cc1 [SB-AF-40-17, 4-Ethoxymethyl-N′-(3,5-dibromo-2-hydroxybenzylidene)benzohydrazide]",–
–,–,–,176 to 177,"CCOCc1ccc(C(=O)N/N=C/c2cccc(Br)c2O)cc1 [SB-AF-40-22, 4-Ethoxymethyl-N′-(3-bromo-2-hydroxybenzylidene)benzohydrazide]",–
0.031,–,8,–,"C#Cc1ccc(/C=N/NC(=O)c2ccc(COCC)cc2)c(O)c1 [SB-AF-40-27, 4-(Ethoxymethyl)-N′-(4-ethynyl-2-hydroxybenzylidene)benzohydrazide]",–
–,–,–,193 to 195,"CC(C)OCc1ccc(C(=O)N/N=C/c2ccc(Br)cc2O)cc1 [SB-AF-41-13, 4-Isopropoxymethyl-N′-(4-bromo-2-hydroxybenzylidene)benzohydrazide]",–
–,–,–,179 to 181,"CC(C)OCc1ccc(C(=O)N/N=C/c2cc(Br)ccc2O)cc1 [SB-AF-41-15, 4-Isopropoxymethyl-N′-(5-bromo-2-hydroxybenzylidene)benzohydrazide]",–
–,–,–,186 to 187,"CC(C)OCc1ccc(C(=O)N/N=C/c2cc(Br)cc(Br)c2O)cc1 [SB-AF-41-17, 4-Isopropoxymethyl-N′-(3,5-dibromo-2-hydroxybenzylidene)benzohydrazide]",–
≤ 0.015,–,> 16,–,"C#Cc1ccc(/C=N/NC(=O)c2ccc(COC(C)C)cc2)c(O)c1 [SB-AF-41-27, N′-(4-Ethynyl-2-hydroxybenzylidene)-4-(isopropoxymethyl)benzohydrazide]",–
0.007,1,1,–,"C#Cc1ccc(O)c(/C=N/NC(=O)c2ccc(C3(C(F)(F)F)N=N3)cc2)c1 [SB-AF-43-23, 4-(3-(Trifluoromethyl)-3H-diazirin-3-yl)-N′-(5-ethynyl-2-hydroxybenzylidene) benzohydrazide]",–
–,–,–,175 to 176,"CCCOCc1ccc(C(=O)N/N=C/c2cc(Br)ccc2O)cc1 [SB-AF-44-15, 4-Propoxymethyl-N′-(5-bromo-2-hydroxybenzylidene)benzohydrazide]",–
–,–,–,190 to 192,"CCCOCc1ccc(C(=O)N/N=C/c2cc(Br)cc(Br)c2O)cc1 [SB-AF-44-17, 4-Propoxymethyl-N′-(3,5-dibromo-2-hydroxybenzylidene)benzohydrazide]",–
0.25,–,> 16,–,"C#Cc1ccc(/C=N/NC(=O)c2ccc(COCCC)cc2)c(O)c1 [SB-AF-44-27, N′-(4-Ethynyl-2-hydroxybenzylidene)-4-(propoxymethyl)benzohydrazide]",–
1,> 32,> 16,–,"C#Cc1ccc(/C=N/NC(=O)c2ccc(Br)c(O)c2)c(O)c1 [SB-AF-46-27, 4-Bromo-N′-(4-ethynyl-2-hydroxybenzylidene)-3-hydroxybenzohydrazide]",–
